Results taken from the NIST ThermoML archive (doi:10.1021/acs.jced.7b00221).

Assay: xn = mol fraction of the nth substance listed
Settings: 100 kPa, Liquid; for viscosity: Cone and plate viscometry; for mass density: Vibrating tube method

CCn1cc[n+](C)c1.O=S(=O)([N-]S(=O)(=O)C(F)(F)F)C(F)(F)F + CCCCCC[n+]1ccn(C)c1.O=S(=O)([N-]S(=O)(=O)C(F)(F)F)C(F)(F)F
Settings	mass density [kg/m3]	viscosity [mPa·s]
278.15 K, x2 = 0	–	80
278.15 K, x2 = 0.15	–	89
278.15 K, x2 = 0.3	–	95
278.15 K, x2 = 0.5	–	120
278.15 K, x2 = 0.7	–	153
278.15 K, x2 = 0.85	–	181
283.15 K, x2 = 0	1534.1	63
283.15 K, x2 = 0.15	1507.1	70
283.15 K, x2 = 0.3	1481.8	74
283.15 K, x2 = 0.5	1451	92
283.15 K, x2 = 0.7	1422.9	116
283.15 K, x2 = 0.85	1403.6	135
288.15 K, x2 = 0	1529	50
288.15 K, x2 = 0.15	1502.1	56
288.15 K, x2 = 0.3	1476.9	58
288.15 K, x2 = 0.5	1446.3	72
288.15 K, x2 = 0.7	1418.2	89
288.15 K, x2 = 0.85	1399	102
293.15 K, x2 = 0	1523.9	–
293.15 K, x2 = 0.15	1497.1	–
293.15 K, x2 = 0.3	1472	–
293.15 K, x2 = 0.5	1441.5	58
293.15 K, x2 = 0.7	1413.5	70
293.15 K, x2 = 0.85	1394.4	79
295.15 K, x2 = 0	1521.9	–
295.15 K, x2 = 0.15	1495.1	–
295.15 K, x2 = 0.3	1470.1	–
295.15 K, x2 = 0.5	1439.6	–
295.15 K, x2 = 0.7	1411.6	–
295.15 K, x2 = 0.85	1392.5	–
298.15 K, x2 = 0	1518.9	–
298.15 K, x2 = 0.15	1492.2	–
298.15 K, x2 = 0.3	1467.2	–
298.15 K, x2 = 0.5	1436.7	–
298.15 K, x2 = 0.7	1408.8	57
298.15 K, x2 = 0.85	1389.7	63
303.15 K, x2 = 0	1513.9	–
303.15 K, x2 = 0.15	1487.2	–
303.15 K, x2 = 0.3	1462.3	–
303.15 K, x2 = 0.5	1431.9	–
303.15 K, x2 = 0.7	1404.1	–
303.15 K, x2 = 0.85	1385.1	51
308.15 K, x2 = 0	1508.9	–
308.15 K, x2 = 0.15	1482.3	–
308.15 K, x2 = 0.3	1457.5	–
308.15 K, x2 = 0.5	1427.2	–
308.15 K, x2 = 0.7	1399.5	–
308.15 K, x2 = 0.85	1380.5	–
313.15 K, x2 = 0	1503.9	–
313.15 K, x2 = 0.15	1477.4	–
313.15 K, x2 = 0.3	1452.7	–
313.15 K, x2 = 0.5	1422.5	–
313.15 K, x2 = 0.7	1394.8	–
313.15 K, x2 = 0.85	1375.9	–
318.15 K, x2 = 0	1499	–
318.15 K, x2 = 0.15	1472.5	–
318.15 K, x2 = 0.3	1447.9	–
318.15 K, x2 = 0.5	1417.8	–
318.15 K, x2 = 0.7	1390.1	–
318.15 K, x2 = 0.85	1371.3	–
323.15 K, x2 = 0	1494.1	–
323.15 K, x2 = 0.15	1467.7	–
323.15 K, x2 = 0.3	1443.1	–
323.15 K, x2 = 0.5	1413.1	–
323.15 K, x2 = 0.7	1385.5	–
323.15 K, x2 = 0.85	1366.8	–
328.15 K, x2 = 0	1489.1	–
328.15 K, x2 = 0.15	1462.8	–
328.15 K, x2 = 0.3	1438.3	–
328.15 K, x2 = 0.5	1408.4	–
328.15 K, x2 = 0.7	1380.9	–
328.15 K, x2 = 0.85	1362.2	–
333.15 K, x2 = 0	1484.2	–
333.15 K, x2 = 0.15	1458	–
333.15 K, x2 = 0.3	1433.5	–
333.15 K, x2 = 0.5	1403.7	–
333.15 K, x2 = 0.7	1376.2	–
333.15 K, x2 = 0.85	1357.7	–
338.15 K, x2 = 0	1479.3	–
338.15 K, x2 = 0.15	1453.2	–
338.15 K, x2 = 0.3	1428.8	–
338.15 K, x2 = 0.5	1399	–
338.15 K, x2 = 0.7	1371.6	–
338.15 K, x2 = 0.85	1353.2	–
343.15 K, x2 = 0	1474.4	–
343.15 K, x2 = 0.15	1448.4	–
343.15 K, x2 = 0.3	1424.1	–
343.15 K, x2 = 0.5	1394.4	–
343.15 K, x2 = 0.7	1367	–
343.15 K, x2 = 0.85	1348.6	–
348.15 K, x2 = 0	1469.6	–
348.15 K, x2 = 0.15	1443.6	–
348.15 K, x2 = 0.3	1419.4	–
348.15 K, x2 = 0.5	1389.8	–
348.15 K, x2 = 0.7	1362.3	–
348.15 K, x2 = 0.85	1344.1	–
353.15 K, x2 = 0	1464.7	–
353.15 K, x2 = 0.15	1438.8	–
353.15 K, x2 = 0.3	1414.7	–
353.15 K, x2 = 0.5	1385.2	–
353.15 K, x2 = 0.7	1357.7	–
353.15 K, x2 = 0.85	1339.7	–

CCCCCCn1cc[n+](C)c1C.O=[N+]([O-])c1cn[n-]c1 [1-hexyl-2,3-dimethylimidazolium 4-nitropyrazolide] + CCCCCCCCCCCCCC[P+](CCCCCC)(CCCCCC)CCCCCC.O=S(=O)([N-]S(=O)(=O)C(F)(F)F)C(F)(F)F
Settings	mass density, x1 = 0.25 [kg/m3]	mass density, x1 = 0.501 [kg/m3]	mass density, x1 = 0.749 [kg/m3]	viscosity, x1 = 0.098 [mPa·s]	viscosity, x1 = 0.303 [mPa·s]	viscosity, x1 = 0.5 [mPa·s]	viscosity, x1 = 0.7 [mPa·s]	viscosity, x1 = 0.898 [mPa·s]
278.15 K	–	–	–	1280	1562	2212	3692	7584
283.15 K	1081.8	1090.2	1104.2	871	1040	1418	2223	4009
288.15 K	1078.2	1086.7	1100.5	606	707	933	1385	2241
293.15 K	1074.6	1083.2	1097	434	495	636	897	1330
295.15 K	1073.2	1081.7	1095.7	–	–	–	–	–
298.15 K	1071.1	1079.7	1093.6	319	357	447	605	830
303.15 K	1067.5	1076.2	1090.3	239	264	324	422	545
308.15 K	1063.9	1072.7	1086.9	184	200	240	304	373
313.15 K	1060.4	1069.3	1083.5	144	154	182	223	263
318.15 K	1057	1065.9	1080.2	115	121	142	169	192
323.15 K	1053.5	1062.6	1077	93	97	112	131	144
328.15 K	1050	1059.2	1073.7	–	–	–	–	–
333.15 K	1046.5	1055.8	1070.5	–	–	–	–	–
338.15 K	1043	1052.4	1067.2	–	–	–	–	–
343.15 K	1039.5	1049	1064	–	–	–	–	–
348.15 K	1036.1	1045.7	1060.7	–	–	–	–	–
353.15 K	1032.6	1042.3	1057.5	–	–	–	–	–

CCCCCCn1cc[n+](C)c1.N#Cc1ccc[n-]1 [1-hexyl-3-methylimidazolium 2-cyanopyrrolide] + CCCCCCCCCCCCCC[P+](CCCCCC)(CCCCCC)CCCCCC.O=S(=O)([N-]S(=O)(=O)C(F)(F)F)C(F)(F)F
viscosity [mPa·s]
Settings	278.15 K	283.15 K	288.15 K	293.15 K	298.15 K	303.15 K	308.15 K	313.15 K	318.15 K	323.15 K
x1 = 0.1	1166	806	568	410	303	229	176	138	110	89
x1 = 0.2	1261	867	605	435	320	241	185	145	115	93
x1 = 0.3	1258	851	589	419	307	230	176	137	109	87
x1 = 0.399	1299	876	602	426	310	231	177	137	109	88
x1 = 0.499	1275	846	575	404	292	216	164	127	100	81
x1 = 0.6	1379	905	612	423	304	224	169	130	102	82
x1 = 0.7	1410	910	603	416	295	216	162	125	97	78
x1 = 0.8	1397	877	571	387	271	196	146	112	87	69
x1 = 0.9	1461	893	566	374	257	183	135	101	79	62
x1 = 1	1540	902	553	355	239	167	122	91	70	55
